Reference: patent publication US20240246935A1 (Plexium, Inc., priority 2021, published 2024)

Key:
IKZF2 (Helios) = test: IKZF2 reporter degradation assay (HEK 293T IKZF2-mNeonGreen reporter cell line); type: cell-based, human; conditions: 1 μM compound, 24 hour incubation, HEK 293T IKZF2-mNeonGreen reporter
Summary of the method: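 HEK 293T lines stably expressing each IKZF-GGGGS×3-mNeonGreen-P2A-mScarlet reporter, 4000 cells/well in FluoroBrite medium, treated with compound (≤0.5% DMSO) for 24 h at 37 °C. Imaging measured percent mNeonGreen-positive cells, with mScarlet used for segmentation; DC50 from four-parameter logistic fit.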

[1] = target: human E3 ligase component cereblon (CRBN) (Homo sapiens (Human), UniProt Q96SW2); test: Cereblon (CRBN) target engagement, NanoBRET TE Intracellular E3 Ligase Assay in transfected HEK-293T cells; conditions: read-out: CRBN Binding EC50
human E3 ligase component cereblon (CRBN), sequence (Q96SW2 whole entry): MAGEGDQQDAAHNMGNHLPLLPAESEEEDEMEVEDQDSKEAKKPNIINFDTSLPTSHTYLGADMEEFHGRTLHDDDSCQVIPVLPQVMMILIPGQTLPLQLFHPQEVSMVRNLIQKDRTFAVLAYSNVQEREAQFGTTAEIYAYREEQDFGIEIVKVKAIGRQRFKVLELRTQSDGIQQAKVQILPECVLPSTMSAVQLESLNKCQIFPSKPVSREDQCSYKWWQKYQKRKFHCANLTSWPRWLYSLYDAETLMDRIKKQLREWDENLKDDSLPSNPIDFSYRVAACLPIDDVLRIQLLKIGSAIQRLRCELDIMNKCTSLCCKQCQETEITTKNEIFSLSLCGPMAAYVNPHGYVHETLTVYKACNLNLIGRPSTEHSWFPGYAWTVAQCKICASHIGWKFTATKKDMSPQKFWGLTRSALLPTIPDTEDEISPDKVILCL
human E3 ligase component cereblon (CRBN), sequence (Q16531 whole entry partner): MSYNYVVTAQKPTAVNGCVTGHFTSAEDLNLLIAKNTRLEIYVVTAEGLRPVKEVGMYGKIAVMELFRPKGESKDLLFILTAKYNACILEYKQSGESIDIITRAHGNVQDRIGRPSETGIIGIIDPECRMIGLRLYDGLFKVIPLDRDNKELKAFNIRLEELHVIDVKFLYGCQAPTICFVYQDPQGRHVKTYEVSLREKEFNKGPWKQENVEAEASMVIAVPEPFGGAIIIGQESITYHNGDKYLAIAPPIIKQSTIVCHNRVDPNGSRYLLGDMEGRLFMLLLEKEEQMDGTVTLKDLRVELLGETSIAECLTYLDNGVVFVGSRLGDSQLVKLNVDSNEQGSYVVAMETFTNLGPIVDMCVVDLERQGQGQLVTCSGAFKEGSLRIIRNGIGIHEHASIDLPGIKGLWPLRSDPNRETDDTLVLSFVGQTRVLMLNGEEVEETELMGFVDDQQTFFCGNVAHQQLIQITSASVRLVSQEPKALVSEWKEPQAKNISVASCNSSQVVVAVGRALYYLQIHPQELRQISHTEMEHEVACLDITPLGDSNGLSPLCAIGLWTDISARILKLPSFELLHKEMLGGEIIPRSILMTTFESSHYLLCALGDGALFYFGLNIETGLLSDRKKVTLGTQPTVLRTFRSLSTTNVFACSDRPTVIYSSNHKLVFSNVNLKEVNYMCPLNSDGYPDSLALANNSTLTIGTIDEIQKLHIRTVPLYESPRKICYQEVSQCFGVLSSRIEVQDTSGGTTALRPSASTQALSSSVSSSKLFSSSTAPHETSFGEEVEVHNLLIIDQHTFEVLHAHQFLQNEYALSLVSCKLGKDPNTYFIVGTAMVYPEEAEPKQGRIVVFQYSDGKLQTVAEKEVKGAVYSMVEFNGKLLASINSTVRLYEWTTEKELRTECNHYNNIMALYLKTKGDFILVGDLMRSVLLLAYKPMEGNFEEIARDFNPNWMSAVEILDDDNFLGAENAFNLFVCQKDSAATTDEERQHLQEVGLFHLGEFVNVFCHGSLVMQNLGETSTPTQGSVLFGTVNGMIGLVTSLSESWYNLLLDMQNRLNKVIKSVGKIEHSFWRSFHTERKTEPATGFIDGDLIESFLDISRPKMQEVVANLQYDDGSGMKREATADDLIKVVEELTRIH
Summary of the method: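 Live HEK-293T cells co-transfected overnight with NanoLuc-CRBN (CRBN at NanoLuc C-terminus) and DDB1 vectors (10:990 ng) were given CRBN tracer and an 11-point compound series for 2 h at 37° C. BRET read at 450/610 nm with extracellular NanoLuc inhibitor present; IC50 from four-parameter logistic fit.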

Row | Compound | IKZF2 % Degradation @ 1 μM (IKZF2 (Helios)) [%] | EC50 [1] [nM]
1 | O=C1CCC(N2Cc3cc(O[C@H]4CCCC[C@@H]4N4CC(c5ccc(F)cc5F)C4)ccc3C2=O)C(=O)N1 (stereo partly drawn) [Compound 57, 3-(5-(((1S,2S)-2-(3-(2,4-difluorophenyl)azetidin-1-yl)cyclohexyl)oxy)-1-oxoisoindolin-2-yl)piperidine-2,6-dione] | 85.8 | 6
2 | O=C1CCC(N2Cc3cc(O[C@H]4CCCC[C@@H]4N4CC(c5ccc(C(F)(F)F)cc5)C4)ccc3C2=O)C(=O)N1 (stereo partly drawn) [Compound 58, 3-(1-oxo-5-(((1S,2S)-2-(3-(4-(trifluoromethyl)phenyl)azetidin-1-yl)cyclohexyl)oxy)isoindolin-2-yl)piperidine-2,6-dione] | 85.8 | 71
3 | O=C1CCC(N2Cc3cc(O[C@@H]4CCCC[C@@H]4N4CC(c5ccc(C(F)(F)F)cc5)C4)ccc3C2=O)C(=O)N1 (stereo partly drawn) [Compound 59, 3-(1-oxo-5-(((1R,2S)-2-(3-(4-(trifluoromethyl)phenyl)azetidin-1-yl)cyclohexyl)oxy)isoindolin-2-yl)piperidine-2,6-dione] | 32.7 | 11
4 | O=C1CCC(N2Cc3cc(OC4CCCCC4N4CC(c5cccc(OC(F)(F)F)c5)C4)ccc3C2=O)C(=O)N1 (stereo not shown) [Compound 67, 3-(1-oxo-5-((2-(3-(3-(trifluoromethoxy)phenyl)azetidin-1-yl)cyclohexyl)oxy)isoindolin-2-yl)piperidine-2,6-dione] | 37.8 | 17
5 | O=C1CCC(N2Cc3cc(OC4CCCCC4N4CC(c5ccccc5OC(F)(F)F)C4)ccc3C2=O)C(=O)N1 (stereo not shown) [Compound 68, 3-(1-oxo-5-((2-(3-(2-(trifluoromethoxy)phenyl)azetidin-1-yl)cyclohexyl)oxy)isoindolin-2-yl)piperidine-2,6-dione] | 42.5 | 26
6 | O=C1CCC(N2Cc3cc(OC4CCCCC4N4CC(c5ccccc5C(F)(F)F)C4)ccc3C2=O)C(=O)N1 (stereo not shown) [Compound 69, 3-(1-oxo-5-((2-(3-(2-(trifluoromethyl)phenyl)azetidin-1-yl)cyclohexyl)oxy)isoindolin-2-yl)piperidine-2,6-dione] | <15 | 25
7 | O=C1CCC(N2Cc3cc(O[C@H]4CCC[C@@H]4N4CCC(c5ccccc5)CC4)ccc3C2=O)C(=O)N1 (stereo partly drawn) [Compound 72, 3-(1-oxo-5-(((1S,2S)-2-(4-phenylpiperidin-1-yl)cyclopentyl)oxy)isoindolin-2-yl)piperidine-2,6-dione] | 38.2 | 7
8 | O=C1CCC(N2Cc3cc(O[C@H]4CCC[C@@H]4N4CC(c5ccc(-n6cccn6)cc5)C4)ccc3C2=O)C(=O)N1 (stereo partly drawn) [Compound 73, 3-(5-(((1S,2S)-2-(3-(4-(1H-pyrazol-1-yl)phenyl)azetidin-1-yl)cyclopentyl)oxy)-1-oxoisoindolin-2-yl)piperidine-2,6-dione] | 63.6 | 5
9 | O=C1CCC(N2Cc3cc(O[C@H]4CCCC[C@@H]4N4CCC(c5ccccc5)CC4)ccc3C2=O)C(=O)N1 (stereo partly drawn) [Compound 79, 3-(1-oxo-5-(((1S,2S)-2-(4-phenylpiperidin-1-yl)cyclohexyl)oxy)isoindolin-2-yl)piperidine-2,6-dione] | <15 | 12
10 | O=C1CCC(N2Cc3cc(O[C@H]4CCCC[C@@H]4N4CC(c5cccc(OC(F)F)c5)C4)ccc3C2=O)C(=O)N1 (stereo partly drawn) [Compound 80, 3-(5-(((1S,2S)-2-(3-(3-(difluoromethoxy)phenyl)azetidin-1-yl)cyclohexyl)oxy)-1-oxoisoindolin-2-yl)piperidine-2,6-dione] | 76.7 | 8
11 | O=C1CCC(N2Cc3cc(O[C@H]4CCCC[C@@H]4N4CC(c5ccc(OC(F)F)cc5)C4)ccc3C2=O)C(=O)N1 (stereo partly drawn) [Compound 81, 3-(5-(((1S,2S)-2-(3-(4-(difluoromethoxy)phenyl)azetidin-1-yl)cyclohexyl)oxy)-1-oxoisoindolin-2-yl)piperidine-2,6-dione] | 77.6 | 9
12 | N#Cc1ccc(C2CN(C3CCCC3Oc3ccc4c(c3)CN(C3CCC(=O)NC3=O)C4=O)C2)cc1 (stereo not shown) [Compound 98, 4-(1-(2-((2-(2,6-dioxopiperidin-3-yl)-1-oxoisoindolin-5-yl)oxy)cyclopentyl)azetidin-3-yl)benzonitrile] | <15 | 32
13 | N#Cc1ccc(C2CN(C3CCCC3Oc3ccc4c(c3)CN(C3CCC(=O)NC3=O)C4=O)C2)cc1F (stereo not shown) [Compound 110, 4-(1-(2-((2-(2,6-dioxopiperidin-3-yl)-1-oxoisoindolin-5-yl)oxy)cyclopentyl)azetidin-3-yl)-2-fluorobenzonitrile] | 48.8 | 19
14 | O=C1CCC(N2Cc3cc(O[C@H]4CCCC[C@@H]4N4CC(c5cccc(N6CCOCC6)c5)C4)ccc3C2=O)C(=O)N1 (stereo partly drawn) [Compound 112, 3-(5-(((1S,2S)-2-(3-(3-morpholinophenyl)azetidin-1-yl)cyclohexyl)oxy)-1-oxoisoindolin-2-yl)piperidine-2,6-dione] | 72.6 | 25
15 | N#Cc1cccc(C2CN([C@H]3CCCC[C@@H]3Oc3ccc4c(c3)CN(C3CCC(=O)NC3=O)C4=O)C2)c1 (stereo partly drawn) [Compound 113, 3-(1-((1S,2S)-2-((2-(2,6-dioxopiperidin-3-yl)-1-oxoisoindolin-5-yl)oxy)cyclohexyl)azetidin-3-yl)benzonitrile] | 73.7 | 13
16 | N#Cc1ccc(C2CN(C3CCCCC3Oc3ccc4c(c3)CN(C3CCC(=O)NC3=O)C4=O)C2)cc1 (stereo not shown) [Compound 117, 4-(1-(2-((2-(2,6-dioxopiperidin-3-yl)-1-oxoisoindolin-5-yl)oxy)cyclohexyl)azetidin-3-yl)benzonitrile] | <15 | 31
17 | O=C1CCC(N2Cc3cc(OC4CCCCC4N4CC(c5ccccc5)C4)ccc3C2=O)C(=O)N1 (stereo not shown) [Compound 118, 3-(1-oxo-5-((2-(3-phenylazetidin-1-yl)cyclohexyl)oxy)isoindolin-2-yl)piperidine-2,6-dione] | <15 | 36
18 | O=C1CCC(N2Cc3cc(O[C@H]4CCC[C@@H]4N4CC(c5ccccc5)C4)ccc3C2=O)C(=O)N1 (stereo partly drawn) [Compound 120, 3-(1-oxo-5-(((1S,2S)-2-(3-phenylazetidin-1-yl)cyclopentyl)oxy)isoindolin-2-yl)piperidine-2,6-dione] | 78.8 | 11
19 | O=C1CCC(N2Cc3cc(O[C@H]4CCC[C@@H]4N4CCC(c5ccccc5)C4)ccc3C2=O)C(=O)N1 (stereo partly drawn) [Compound 121, 3-(1-oxo-5-(((1S,2S)-2-(3-phenylpyrrolidin-1-yl)cyclopentyl)oxy)isoindolin-2-yl)piperidine-2,6-dione] | 75.9 | 6
20 | O=C1CCC(N2Cc3cc(O[C@H]4CCCC[C@@H]4N4CC(c5ccc(F)cc5)C4)ccc3C2=O)C(=O)N1 (stereo partly drawn) [Compound 123, 3-(5-(((1S,2S)-2-(3-(4-fluorophenyl)azetidin-1-yl)cyclohexyl)oxy)-1-oxoisoindolin-2-yl)piperidine-2,6-dione] | 74.4 | 11
21 | COc1cccc(C2CN([C@H]3CCCC[C@@H]3Oc3ccc4c(c3)CN(C3CCC(=O)NC3=O)C4=O)C2)c1 (stereo partly drawn) [Compound 126, 3-(5-(((1S,2S)-2-(3-(3-methoxyphenyl)azetidin-1-yl)cyclohexyl)oxy)-1-oxoisoindolin-2-yl)piperidine-2,6-dione] | 84.3 | 5
22 | O=C1CCC(N2Cc3cc(O[C@H]4CCCC[C@H]4N4CC(c5ccccc5)C4)ccc3C2=O)C(=O)N1 (stereo partly drawn) [Compound 128, 3-(1-oxo-5-(((1S,2R)-2-(3-phenylazetidin-1-yl)cyclohexyl)oxy)isoindolin-2-yl)piperidine-2,6-dione] | <15 | 18
23 | Rac-3-(5-(((trans)-2-(3-hydroxy-3-phenylazetidin-1-yl)cyclohexyl)oxy)-1-oxoisoindolin-2-yl)piperidine-2,6-dione [Compound 96] | 78.9 | 42
